The values below come from patent US5391765A, “Cholesterol lowering/antioxidant nitroxides” (Bristol-Myers Squibb Company, priority 1993, dated 1995).

One data set deals with HepG2 cells. In words: Cholesterol biosynthesis, 14C-acetate incorporation in HepG2 cells. The note with it: Homo sapiens, 4 h incubation, 14C-acetate incorporation over final hour, read-out: Chol. Biosynthesis. The class given is cell-based. The protocol:
(§1) The human hepatoma HepG2 cell culture model was employed to compare the intrinsic activities of the synthetic analogues relative to the tocotrienols. HepG2 cells were incubated with the indicated compounds for 4 hours at 10 μM. Cholesterol synthesis was assayed by ^14 C-acetate incorporation over the final hour of incubation, and HMG-CoA reductase suppression (specific activity) was assayed in the microsomal fraction isolated from parallel cultures at the end of the 4 hour incubation. […] (Table I)

Data set [1] has as its system HMG-CoA reductase. In words: HMG-CoA reductase suppression (specific activity) in microsomal fraction of treated HepG2 cells. The class given is cell-based, human. Conditions: 10 μM, 4 h incubation. The protocol: as §1
Data set [2] deals with normocholesterolemic chickens. In words: Serum lipids (total, LDL and HDL cholesterol) in normocholesterolemic male chickens. The class given is in vivo, chicken. The note with it: orally dosed for 4 weeks at 4 mg/kg/day. The protocol:
(§2) Hypocholesterolemic activity was evaluated for the synthetic analogues using γ-tocotrienol as a control in normocholesterolemic chickens. Newborn male chicks (6-10 for each group) were raised on a standard corn-soybean-based control diet for two weeks and then were switched to either control or experimental diets for four weeks. Drug treatment consisted of the addition of test compound to the corn-soybean-based. At the end of the feeding period, all the birds were fasted (about 36 hours) and refed (about 48 hours) to induce cholesterolgenic enzymes prior to sacrifice. The specific activity of HMG-CoA reductase, total serum cholesterol levels, HDL/LDL cholesterol pools, and triglyceride levels (data not shown) were examined (Table II).
(§3) Effects of Compound 3 on Lipid Parameters in Male Chickens
(§4) Orally dosed for 4-weeks at 4 mg/kg/day

Data set [3] deals with HMG-CoA reductase. In words: HMG-CoA reductase specific activity in normocholesterolemic male chickens. The class given is in vivo, chicken. Conditions: orally dosed for 4 weeks at 4 mg/kg/day. The protocol: as §2, §3, §4
The nature of data set [4]: Oxidation potential by cyclic voltammetry.
Data set [5] has as its system LDL. Kind of data set: In vitro copper-mediated LDL oxidation, conjugated diene lag time extension. The note with it: 10 μM incubated with rabbit plasma, isolated LDL, added Cu++; lag time ratio treated/control.
For data set [6], the system named is LDL. The note with it: in vitro and in vivo; cited from earlier work.
The conditions of data set [7]: background statement; cited from earlier work.
Data set [8] relates to LDL. The note with it: oral vitamin E supplementation; cited from earlier work.

In the case of `CC(C)=CCC/C(C)=C/CC/C(C)=C/CCSCC1=CC(C)(C)N([O])C1(C)C` [Compound 3, 2,5-Dihydro-2,2,5,5-Tetramethyl-3-[[(4,8,12-Trimethyl-3(E),7(E),11-Tridecatrienyl)thio]methyl]-1H-Pyrrole N-Oxide Radical], the activity at 10 µM in the data set on HepG2 cells is 5%. In the data set with HMG-CoA reductase [1], the “HMGR Suppression” value was 45% of Control. Besides, in data set [2], the HDL-C is recorded as 85.8 % of Control and the LDL-C is on record as 52.8 % of Control. For the same molecule, in data set [2] (total serum cholesterol), the Tot.-C was 72.0 % of Control. The HMGR with HMG-CoA reductase [3] was 56.0 % of Control. Besides, the “Oxd. Potential” value in [4] is 0.65 Volts. Besides, the “LDL Oxd. Inhib. mean lag ratio” value in the data set with LDL [5] turned out to be 0.97.
As for `CC(C)=CCC/C(C)=C/CC/C(C)=C/CCCOc1ccc2c(c1)C(C)=CC(C)(C)N2[O]` [Compound 5, 1,2 -Dihydro-2,2,4-Trimethyl-6-[(5,9,13 -Trimethyl-4(E),8(E),12-tetradecatrienyl)oxy]Quinoline N-Oxide Radical], in the data set on HepG2 cells, the activity at 10 µM is 72%.
Consider `CC(C)(Sc1cc(C(C)(C)C)c(O)c(C(C)(C)C)c1)Sc1cc(C(C)(C)C)c(O)c(C(C)(C)C)c1` [PROBUCOL, 4,4'-[(1-methylethylidene)bis(thio)]bis[2,6-bis(1,1-dimethylethyl)]], for which the “oxidative modification of LDL” value in the data set with LDL [6] was “inhibits the oxidative modification of LDL both in vitro and in vivo”. Moreover, the bioavailability result in data set [7] is “suffers from bioavailability problems”. For the same molecule, the “Oxd. Potential” value in data set [4] is reported as 1.12 Volts.
For `Cc1c(C)c2c(c(C)c1O)CCC(C)(CCCC(C)CCCC(C)CCCC(C)C)O2` (stereo not drawn) [α-Tocopherol], the “Oxd. Potential” value in data set [4] turned out to be 0.81 Volts.
For the molecule `CC(C)=CCC/C(C)=C/CC/C(C)=C/CCC1(C)CCc2cc(O)c(C)c(C)c2O1` (centres unmarked) [γ-Tocotrienol], the activity at 10 µM in the data set with HepG2 cells was found to be 75%. For the same molecule, in the data set on HMG-CoA reductase [1], the “HMGR Suppression” value is recorded as 65% of Control. Besides, in [2], the HDL-C is on record as 87.0 % of Control and the LDL-C was 54.8 % of Control. Also, the “Oxd. Potential” value in data set [4] came out at 0.94 Volts.
Turning to vitamin E, in the data set with LDL [8], the “antioxidant effectiveness, variation between subjects” value is given as “varied considerably from subject to subject” and the “oxidative resistance of LDL” value is “significantly enhanced”.
